# Entries after “also recorded” stand apart in the source; their conditions may differ.
# Legend:
# metastatic-UM cell = assay: CFSE cellular proliferation, metastatic UM; format: cell-based, human; settings: metastatic-UM cells; 96 hrs culture, 1 μM for the last 24 hrs
# Experimental: (§1) Harvested cells were resuspended at a concentration of 1.0×10^6 cells/mL in warm PBS/1% FBS. Cells were labeled with […] (Invitrogen) for 5 minutes at 37° C. then quenched on cold growth media (final volume 20 mL) for 10 minutes, twice. Cultured unlabeled cells were used as controls.
# (§2) To test the hypothesis that inhibition of paxillin will reduce cellular proliferation UM cell lines were labeled with carboxyfluorescein succunimidyl ester (CFSE), a cell tracking dye, and cultured for 96 hrs. A group of cells received treatment with compound (II-4) for the last 24 hours. Maximum CFSE fluorescence was controlled using labeled cells prior culture −0 hr. Negative control was established using unlabeled cells cultured in parallel. Histograms in FIG. 15D show 96 hrs cultured cells divided with a 1-log shift or reduction in CFSE intensity. […] Cell proliferation was not affected in the 92.1 cell line. […]
# (§3) FIG. 15: The paxillin inhibitor Compound (II-4) selectively affects cellular proliferation of primary UM cells that become metastatic. […] Unlabeled cells were used to control fluorescence. […] B. Quantitation of experiment +/−SD including primary UM that becomes metastatic (Mel 270), metastatic (OMM 2.1) and primary (92.1) UM cells. *P=0.0007 and **P=0.0005. […] Quantitation of VLA-4 protein levels +/−SD from n=3. […]
# 92.1 cell line = assay: CFSE cellular proliferation, 92.1; format: cell-based, human; settings: 96 hrs culture, 1 μM for the last 24 hrs
# Experimental: as §1, §2, §3
# murine OIR model = assay: Murine OIR model, retinal whole-mounts; format: in vivo, mouse; settings: daily ocular administration 0.5 mg/kg or 5 mg/kg in ME, P12 to P17, vs vehicle
# Text: Topical delivery of compound (II-4) using an ocular ME was chosen for several reasons. First, intravitreal injection is technically challenging and, unlike intraocular delivery of proteins, is unnecessary for delivery of small molecules. […] The murine OIR model was used to examine the effect of compound (II-4) on the natural history of VEGF-induced proliferative retinopathy. Briefly, pups were exposed to 75% oxygen at post-natal day 7 (P7) for 5 days and then returned to normal oxygen at P12. Mice received daily ocular administration of either compound (II-4) (0.5 mg/kg or 5 mg/kg) or vehicle (ME) from P12 to P17. Eyes were enucleated at P17 and retinal whole-mounts stained for endothelial cells followed by quantification of avascular area and vascular tuft formation.
# FIG. 22: Oxygen-Induced Retinopathy (OIR). (A:) P17 retinal whole-mounts were stained for endothelial cells. […] Data represent mean (±SD). N=8-14/group. […] (C): Quantitation of panel A neovascular area. (D): Quantitation of panel A avascular area. (E): Quantitation of panel B total paxillin.
smiles,measurement,setting,value
COc1cc(C2OC(=O)Nc3c2ccc2ccccc32)cc(OC)c1OC (stereo not shown) [compound II-4],cell proliferation (CFSE),metastatic-UM cell,reduction was not observed
same,cell proliferation (CFSE),92.1 cell line,not affected
same,hypoxia-induced neovascularization (neovascular area),murine OIR model,striking inhibition; also recorded: reductions in NV
same,retinal avascular area,murine OIR model,modest increase; also recorded: increases in AV
